SMILES strings stand for the structures. pKi: −log10 of the molar value.

For the experiment, the target named is T1, MMP-1 (Homo sapiens, UniProt P03956).
T1 construct: made in house; host or cells: MMP-1-transfected HT-1080 cells (spent media)
T1 sequence (P03956 100-469): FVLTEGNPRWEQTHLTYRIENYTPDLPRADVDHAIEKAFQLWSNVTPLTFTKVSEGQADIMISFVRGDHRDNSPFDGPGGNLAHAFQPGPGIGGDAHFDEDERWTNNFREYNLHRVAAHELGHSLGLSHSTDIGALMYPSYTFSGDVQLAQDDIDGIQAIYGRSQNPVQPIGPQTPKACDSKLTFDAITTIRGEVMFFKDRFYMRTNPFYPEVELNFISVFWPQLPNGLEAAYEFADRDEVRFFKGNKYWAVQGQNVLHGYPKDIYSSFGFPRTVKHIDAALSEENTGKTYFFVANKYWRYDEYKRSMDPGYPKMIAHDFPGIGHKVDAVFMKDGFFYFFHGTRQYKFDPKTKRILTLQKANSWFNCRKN
Briefly: In vitro MMP inhibition, Ki determination (fluorogenic substrate II). It is filed as biochemical. The following applies: value outside parentheses; read-out: MMP-1 Ki.
For `O=C(NO)C1(S(=O)(=O)N2CCN(c3ncc(-c4ccc([N+](=O)[O-])cc4)s3)CC2)CCOCC1` [Example 363], the pKi (commonly −log10 of the Ki, conventionally taken in molar units) is 5.63. As for `CCCCc1ccc(-c2cnc(N3CCN(S(=O)(=O)C4(C(=O)NO)CCOCC4)CC3)s2)cc1` [Example 379], the pKi is below 5.00. With `O=C(NO)C1(S(=O)(=O)N2CCN(c3ccc(-c4ccccc4F)cn3)CC2)CCOCC1` [Example 317], the pKi was 5.62. For the compound `CCc1ccc(C2CCN(S(=O)(=O)C3(C(=O)NO)CCN(CCOC)CC3)CC2)s1` [Example 314], the pKi was below 5.00.

`CCCCCc1cccc(N2CCN(S(=O)(=O)C3(C(=O)NO)CCOCC3)CC2)c1` [Example 356]: the pKi was below 5.00. With `O=C(NO)C1(S(=O)(=O)N2CCN(c3ccc(Br)cn3)CC2)CCOCC1` [Example 331], the pKi was 6.55. Consider `CCCCCc1ccc(-c2cnc(N3CCN(S(=O)(=O)C4(C(=O)NO)CCOCC4)CC3)s2)cc1` [Example 380], for which the pKi is below 5.00. The same measure for `O=C(NO)C1(S(=O)(=O)N2CCN(c3ccc(CCC(F)(F)C(F)(F)F)cc3)CC2)CCN(C2CC2)CC1` [Example 335]: below 5.00; for `O=C(NO)C1(S(=O)(=O)N2CCC(c3ccc(-c4cccs4)cn3)CC2)CCOCC1` [Example 394]: 5.56. As for `O=C(NO)C1(S(=O)(=O)N2CCC(c3ccc(CCC(F)(F)C(F)(F)F)cn3)CC2)CCOCC1` [Example 340], the pKi is 5.23. Consider `O=C(NO)C1(S(=O)(=O)N2CCC(c3ccc(OCC(F)(F)C(F)F)cc3)CC2)CCN(CCN2CCOCC2)CC1` [Example 385], for which the pKi was below 5.00. The value for `O=C(NO)C1(S(=O)(=O)N2CCN(c3ncc(-c4ccc(C(F)(F)F)cc4)s3)CC2)CCOCC1` [Example 346] was 5.24.

For the compound `O=C(NO)C1(S(=O)(=O)N2CCN(c3ncc(/C=C/c4ccccc4)s3)CC2)CCOCC1` [Example 361], the negative logarithm of the Ki (pKi) was below 5.60. In the case of `O=C(NO)C1(S(=O)(=O)N2CCN(c3ccc(CCCC(F)(F)F)c(F)c3)CC2)CCOCC1` [Example 389], the pKi was below 5.00.

For `O=C(NO)C1(S(=O)(=O)N2CCN(c3ncc(-c4ccc5c(c4)OCO5)s3)CC2)CCOCC1` [Example 362], the pKi was 5.67. Take `O=C(NO)C1(S(=O)(=O)N2CCN(c3ccc(CCCC(F)(F)F)cc3)CC2)CCOCC1` [Example 320]: the pKi was below 5.00. For `O=C(NO)C1(S(=O)(=O)N2CCN(c3ncc(-c4ccc(F)cc4)s3)CC2)CCOCC1` [Example 345], the negative-log Ki (pKi) was 5.26. Take `O=C(NO)C1(S(=O)(=O)N2CCC(c3ccc(CCCC(F)(F)F)cc3)CC2)CCOCC1` [Example 353]: the pKi was 5.07. `O=C(NO)C1(S(=O)(=O)N2CCN(c3ncc(-c4ccc(OC(F)(F)F)cc4)s3)CC2)CCOCC1` [Example 364]: the pKi was 5.40.

`O=C(NO)C1(S(=O)(=O)N2CCC(COCC(F)(F)C(F)(F)F)CC2)CCOCC1` [Example 376]: the pKi was below 5.00.

For the compound `O=C(O)c1ccc(N2CCN(S(=O)(=O)C3(C(=O)NO)CCOCC3)CC2)cc1` [Example 352], the pKi was below 5.00. On to `O=C(NO)C1(S(=O)(=O)N2CCN(c3ncc(-c4cccnc4)s3)CC2)CCOCC1` [Example 382], for which the pKi was 5.57. As to `O=C(NO)C1(S(=O)(=O)N2CCN(c3ncc(-c4ccc(Cl)cc4)s3)CC2)CCOCC1` [Example 343], the pKi is 5.28.

Consider `COc1ccc(-c2cnc(N3CCN(S(=O)(=O)C4(C(=O)NO)CCOCC4)CC3)s2)cc1OC` [Example 371], for which the pKi was 5.08. For `O=C(NO)C1(S(=O)(=O)N2CCC(c3ccc(CCC(F)(F)F)cn3)CC2)CCOCC1` [Example 367], the pKi is 5.01. With `O=C(NO)C1(S(=O)(=O)N2CCN(c3cnn(-c4ccccc4)c(=O)c3Cl)CC2)CCOCC1` [Example 329], the pKi is below 5.00. The same measure for `CCCCOc1cccc(N2CCN(S(=O)(=O)C3(C(=O)NO)CCOCC3)CC2)c1` [Example 354]: below 5.00; for `O=C(NO)C1(S(=O)(=O)N2CCN(c3ccc(OCC(F)(F)C(F)F)cc3)CC2)CCOCC1` [Example 336]: 5.58; for `O=C(NO)C1(S(=O)(=O)N2CCN(c3ccc(OCC(F)(F)C(F)F)cc3)CC2)CCOCC1` [Example 326]: 5.18.

The values are drawn from patent US20050209278A1, “Piperidinyl- and piperazinyl-sulfonylmethyl hydroxamic acids and their use as protease inhibitors” (priority 2002, published 2005).
